In brackets after ≈: the same amount, converted by molar mass.
How the values were obtained:
Format in all cases: cell-based
E. coli ATCC25922 = assay: MIC determination, broth microdilution (CLSI); conditions: Escherichia coli, ATCC25922, strain 1
K. pneumoniae 60 = assay: MIC determination, broth microdilution (CLSI); conditions: Klebsiella pneumoniae, 60, strain 2
E. cloacae 34654 = assay: MIC determination, broth microdilution (CLSI); conditions: Enterobacter cloacae, 34654, strain 3
C. freundii K21/3034 = assay: MIC determination, broth microdilution (CLSI); conditions: Citrobacter freundii, K21/3034, strain 4
M. morganii 126/3048 = assay: MIC determination, broth microdilution (CLSI); conditions: Morganella morganii, 126/3048, strain 5
P. aeruginosa PAO1 = assay: MIC determination, broth microdilution (CLSI); conditions: Pseudomonas aeruginosa, PAO1, strain 6
[1] = tested on: P. aeruginosa 2297 (AmpC wt); assay: MIC determination, broth microdilution (CLSI); conditions: Pseudomonas aeruginosa, strain 7
[2] = tested on: P. aeruginosa 2297-con (AmpC derepressed); assay: MIC determination, broth microdilution (CLSI); conditions: Pseudomonas aeruginosa, read-out: strain 8 MIC, strain 8
A. baumannii ATCC15308 = assay: MIC determination, broth microdilution (CLSI); conditions: Acinetobacter baumannii, ATCC15308, strain 9
S. maltophilia ICB7569 = assay: MIC determination, broth microdilution (CLSI); conditions: Stenotrophomonas maltophilia, ICB7569, strain 10
S. aureus 133 = assay: MIC determination, broth microdilution (CLSI); conditions: Staphylococcus aureus, 133, strain 11; read-out: strain 11 MIC
M. catarrhalis ICB489 = assay: MIC determination, broth microdilution (CLSI); conditions: Moraxella catarrhalis, ICB489, strain 12
H. influenzae ATCC 49247 = assay: MIC determination, broth microdilution (CLSI); conditions: Haemophilus influenzae, ATCC49247, strain 13; read-out: strain 13 MIC
S. pneumoniae 113 = assay: MIC determination, broth microdilution (CLSI); conditions: Streptococcus pneumoniae, 113, strain 14; read-out: strain 14 MIC
B. fragilis 6688 = assay: MIC determination, broth microdilution (CLSI); conditions: Bacteroides fragilis, 6688, strain 15; read-out: strain 15 MIC
C. perfringens DSM756 = assay: microbe, parasite or virus in culture; conditions: Clostridium perfringens, DSM756, read-out: strain 16 MIC, strain 16
E. coli J62 = assay: MIC determination, broth microdilution (CLSI); conditions: Escherichia coli, J62, strain 17; read-out: strain 17 MIC
E. coli J62-TEM-3 = assay: MIC determination, broth microdilution (CLSI); conditions: Escherichia coli, J62TEM3, read-out: strain 18 MIC, strain 18
strain 19 = assay: MIC determination, broth microdilution (CLSI)
strain 20 = assay: MIC determination, broth microdilution (CLSI)
strain 21 = assay: MIC determination, broth microdilution (CLSI)

| Structure (SMILES) | MIC (E. coli ATCC25922) [µg/mL] | MIC (K. pneumoniae 60) [µg/mL] | MIC (E. cloacae 34654) [µg/mL] | MIC (C. freundii K21/3034) [µg/mL] | MIC (M. morganii 126/3048) [µg/mL] | MIC (P. aeruginosa PAO1) [µg/mL] | MIC [1] [µg/mL] | MIC [2] [µg/mL] | MIC (A. baumannii ATCC15308) [µg/mL] | MIC (S. maltophilia ICB7569) [µg/mL] | MIC (S. aureus 133) [µg/mL] | MIC (M. catarrhalis ICB489) [µg/mL] | MIC (H. influenzae ATCC 49247) [µg/mL] | MIC (B. fragilis 6688) [µg/mL] | MIC (C. perfringens DSM756) [µg/mL] | MIC (E. coli J62) [µg/mL] | MIC (E. coli J62-TEM-3) [µg/mL] | MIC (strain 19) [µg/mL] | MIC (strain 20) [µg/mL] | MIC (strain 21) [µg/mL] | other results |
| --- | --- | --- | --- | --- | --- | --- | --- | --- | --- | --- | --- | --- | --- | --- | --- | --- | --- | --- | --- | --- | --- |
| CC1(C)[C@H](NC(=O)/C(=N\OCCOc2ccc(C(=N)N)nc2)c2csc(N)n2)C(=O)N1OS(=O)(=O)O [Example 4, (2Z)-2-(2-Amino-1,3-thiazol-4-yl)-2-({2-[(6-carbamimidoylpyridin-3-yl)oxy]ethoxy}imino)-N-[(3)-2,2-dimethyl-4-oxo-1-(sulfooxy)azetidin-3-yl]ethanamide] | 0.125 (≈ 0.23 µM) | 0.25 (≈ 0.461 µM) | 0.5 (≈ 0.922 µM) | 0.125 (≈ 0.23 µM) | 0.25 (≈ 0.461 µM) | 4 (≈ 7.37 µM) | 16 (≈ 29.5 µM) | 8 (≈ 14.7 µM) | 1 (≈ 1.84 µM) | 4 (≈ 7.37 µM) | ≤ 0.063 | ≤ 0.063 | ≤ 0.063 | 2 (≈ 3.69 µM) | 2 (≈ 3.69 µM) | 0.25 (≈ 0.461 µM) | 8 (≈ 14.7 µM) | 0.125 (≈ 0.23 µM) | 0.25 (≈ 0.461 µM) | 0.25 (≈ 0.461 µM) | MIC (S. pneumoniae 113): 16 µg/mL (≈ 29.5 µM) |
| CC1(C)[C@H](NC(=O)/C(=N\OCCSc2ccc(C(=N)N)cc2)c2csc(N)n2)C(=O)N1OS(=O)(=O)O [Example 7, (2Z)-2-(2-Amino-1,3-thiazol-4-yl)-2-({2-[(4-carbamimidoylphenyl)sulfanyl]ethoxy}imino)-N-[(3S)-2,2-dimethyl-4-oxo-1-(sulfooxy)azetidin-3-yl]ethanamide] | 0.5 (≈ 0.897 µM) | 1 (≈ 1.79 µM) | 1 (≈ 1.79 µM) | 0.5 (≈ 0.897 µM) | 0.5 (≈ 0.897 µM) | 8 (≈ 14.3 µM) | 16 (≈ 28.7 µM) | 8 (≈ 14.3 µM) | 2 (≈ 3.59 µM) | 4 (≈ 7.17 µM) | ≤ 0.063 | 0.25 (≈ 0.448 µM) | ≤ 0.063 | 1 (≈ 1.79 µM) | 2 (≈ 3.59 µM) | 1 (≈ 1.79 µM) | 8 (≈ 14.3 µM) | 0.5 (≈ 0.897 µM) | 1 (≈ 1.79 µM) | 1 (≈ 1.79 µM) | MIC (S. pneumoniae 113): 2 µg/mL (≈ 3.59 µM) |
| CC1(C)[C@H](NC(=O)/C(=N\OCCOc2ccnc(C(=N)N)c2)c2csc(N)n2)C(=O)N1OS(=O)(=O)O [Example 15, (2Z)-2-(2-Amino-1,3-thiazol-4-yl)-2-({2-[(2-carbamimidoylpyridin-4-yl)oxy]ethoxy}imino)-N-[(3S)-2,2-dimethyl-4-oxo-1-(sulfooxy)azetidin-3-yl]ethanamide] | 0.5 (≈ 0.922 µM) | 1 (≈ 1.84 µM) | 1 (≈ 1.84 µM) | 0.5 (≈ 0.922 µM) | 0.5 (≈ 0.922 µM) | 8 (≈ 14.7 µM) | 8 (≈ 14.7 µM) | 8 (≈ 14.7 µM) | 2 (≈ 3.69 µM) | 4 (≈ 7.37 µM) | ≤ 0.063 | ≤ 0.063 | ≤ 0.063 | 2 (≈ 3.69 µM) | 0.5 (≈ 0.922 µM) | 1 (≈ 1.84 µM) | 8 (≈ 14.7 µM) | 0.5 (≈ 0.922 µM) | 0.5 (≈ 0.922 µM) | 0.5 (≈ 0.922 µM) | MIC (S. pneumoniae 113): 2 µg/mL (≈ 3.69 µM) |
| N=C(N)c1ccc(OCCO/N=C(\C(=O)NC2C(=O)N(OS(=O)(=O)O)C23CCCC3)c2csc(N)n2)cc1 (centres unmarked) [Example 16, (2Z)-2-(2-Amino-1,3-thiazol-4-yl)-2-{[2-(4-carbamimidoylphenoxy)ethoxy]imino}-N-[2-oxo-1-(sulfooxy)-1-azaspiro[3.4]oct-3-yl]ethanamide] | 1 (≈ 1.76 µM) | 1 (≈ 1.76 µM) | 1 (≈ 1.76 µM) | 2 (≈ 3.52 µM) | 0.5 (≈ 0.881 µM) | 32 (≈ 56.4 µM) | 32 (≈ 56.4 µM) | 32 (≈ 56.4 µM) | 4 (≈ 7.05 µM) | 8 (≈ 14.1 µM) | ≤ 0.063 | 1 (≈ 1.76 µM) | ≤ 0.063 | 8 (≈ 14.1 µM) | 4 (≈ 7.05 µM) | 2 (≈ 3.52 µM) | 4 (≈ 7.05 µM) | 1 (≈ 1.76 µM) | 1 (≈ 1.76 µM) | 1 (≈ 1.76 µM) | – |
| CC1(C)[C@H](NC(=O)/C(=N\OCCOc2cc(C(=N)N)ccn2)c2csc(N)n2)C(=O)N1OS(=O)(=O)O [Example 22, (2Z)-2-(2-Amino-1,3-thiazol-4-yl)-2-({2-[(4-carbamimidoylpyridin-2-yl)oxy]ethoxy}imino)-N-[(3S)-2,2-dimethyl-4-oxo-1-(sulfooxy)azetidin-3-yl]ethanamide] | 1 (≈ 1.84 µM) | 1 (≈ 1.84 µM) | 1 (≈ 1.84 µM) | 0.5 (≈ 0.922 µM) | 1 (≈ 1.84 µM) | 16 (≈ 29.5 µM) | 32 (≈ 59 µM) | 16 (≈ 29.5 µM) | 4 (≈ 7.37 µM) | 4 (≈ 7.37 µM) | ≤ 0.063 | 0.125 (≈ 0.23 µM) | ≤ 0.063 | 4 (≈ 7.37 µM) | 2 (≈ 3.69 µM) | 1 (≈ 1.84 µM) | 8 (≈ 14.7 µM) | 0.5 (≈ 0.922 µM) | 1 (≈ 1.84 µM) | 1 (≈ 1.84 µM) | MIC (S. pneumoniae 113): 2 µg/mL (≈ 3.69 µM) |
| CC1(C)[C@H](NC(=O)/C(=N\OCCOc2ccc(C(=N)NC3CCNCC3)cc2)c2csc(N)n2)C(=O)N1OS(=O)(=O)O [Example 23, (2Z)-2-(2-Amino-1,3-thiazol-4-yl)-N-[(3S)-2,2-dimethyl-4-oxo-1-(sulfooxy)azetidin-3-yl]-2-[(2-{4-[N-(piperidin-4-yl)carbamimidoyl]phenoxy}ethoxy)imino]ethanamide] | 0.125 (≈ 0.2 µM) | 0.25 (≈ 0.4 µM) | 0.5 (≈ 0.8 µM) | 0.125 (≈ 0.2 µM) | 0.5 (≈ 0.8 µM) | 2 (≈ 3.2 µM) | 2 (≈ 3.2 µM) | 2 (≈ 3.2 µM) | 0.5 (≈ 0.8 µM) | 16 (≈ 25.6 µM) | ≤ 0.063 | ≤ 0.063 | ≤ 0.063 | 4 (≈ 6.4 µM) | 2 (≈ 3.2 µM) | 0.25 (≈ 0.4 µM) | 1 (≈ 1.6 µM) | 0.125 (≈ 0.2 µM) | 0.125 (≈ 0.2 µM) | 0.25 (≈ 0.4 µM) | MIC (S. pneumoniae 113): 1 µg/mL (≈ 1.6 µM) |
| CC1(C)[C@H](NC(=O)/C(=N\OCCOc2ccc(C(=N)NCCN)cc2)c2csc(N)n2)C(=O)N1OS(=O)(=O)O [Example 24, (2Z)-2-[(2-{4-[N-(2-Aminoethyl)carbamimidoyl]phenoxy}ethoxy)imino]-2-(2-amino-1,3-thiazol-4-yl)-N-[(3S)-2,2-dimethyl-4-oxo-1-(sulfooxy)azetidin-3-yl]ethanamide] | 0.125 (≈ 0.214 µM) | 0.25 (≈ 0.428 µM) | 0.25 (≈ 0.428 µM) | 0.125 (≈ 0.214 µM) | 0.125 (≈ 0.214 µM) | 2 (≈ 3.42 µM) | 4 (≈ 6.84 µM) | 2 (≈ 3.42 µM) | 1 (≈ 1.71 µM) | 8 (≈ 13.7 µM) | ≤ 0.063 | ≤ 0.063 | ≤ 0.063 | 2 (≈ 3.42 µM) | 2 (≈ 3.42 µM) | 0.125 (≈ 0.214 µM) | 2 (≈ 3.42 µM) | 0.125 (≈ 0.214 µM) | 0.25 (≈ 0.428 µM) | 0.5 (≈ 0.855 µM) | MIC (S. pneumoniae 113): 2 µg/mL (≈ 3.42 µM) |
| CC1(C)[C@H](NC(=O)/C(=N\OCCOc2ccc(C3=NCCN3)cc2)c2csc(N)n2)C(=O)N1OS(=O)(=O)O [Example 25, (2Z)-2-(2-Amino-1,3-thiazol-4-yl)-2-({2-[4-(4,5-dihydro-1H-imidazol-2-yl)phenoxy]ethoxy}imino)-N-[(3S)-2,2-dimethyl-4-oxo-1-(sulfooxy)azetidin-3-yl]ethanamide] | 0.125 (≈ 0.22 µM) | 0.25 (≈ 0.44 µM) | 0.25 (≈ 0.44 µM) | 0.125 (≈ 0.22 µM) | 0.125 (≈ 0.22 µM) | 2 (≈ 3.52 µM) | 4 (≈ 7.05 µM) | 4 (≈ 7.05 µM) | 2 (≈ 3.52 µM) | 8 (≈ 14.1 µM) | ≤ 0.063 | ≤ 0.063 | ≤ 0.063 | 2 (≈ 3.52 µM) | 2 (≈ 3.52 µM) | 0.25 (≈ 0.44 µM) | 4 (≈ 7.05 µM) | 0.125 (≈ 0.22 µM) | 0.125 (≈ 0.22 µM) | 0.125 (≈ 0.22 µM) | MIC (S. pneumoniae 113): 4 µg/mL (≈ 7.05 µM) |
| CC1(C)[C@H](NC(=O)/C(=N\OCCOc2cnc(C(=N)N)c(O)c2)c2csc(N)n2)C(=O)N1OS(=O)(=O)O [Example 33, (2Z)-2-(2-Amino-1,3-thiazol-4-yl)-2-({2-[(6-carbamimidoyl-5-hydroxypyridin-3-yl)oxy]ethoxy}imino)-N-[(3S)-2,2-dimethyl-4-oxo-1-(sulfooxy)azetidin-3-yl]ethanamide] | 0.25 (≈ 0.448 µM) | 0.5 (≈ 0.895 µM) | 0.5 (≈ 0.895 µM) | 0.25 (≈ 0.448 µM) | 0.25 (≈ 0.448 µM) | 8 (≈ 14.3 µM) | 16 (≈ 28.6 µM) | 8 (≈ 14.3 µM) | 8 (≈ 14.3 µM) | 16 (≈ 28.6 µM) | ≤ 0.063 | 0.125 (≈ 0.224 µM) | ≤ 0.063 | 4 (≈ 7.16 µM) | 2 (≈ 3.58 µM) | 0.5 (≈ 0.895 µM) | 32 (≈ 57.3 µM) | 0.25 (≈ 0.448 µM) | 0.25 (≈ 0.448 µM) | 0.5 (≈ 0.895 µM) | MIC (S. pneumoniae 113): 32 µg/mL (≈ 57.3 µM) |

Reference: patent US9556165B2 (priority 2012, dated 2017)
